Holding throughout (assay): MIC by broth microdilution
Common to all, as to format: cell-based

Experiment [1] has as its system UDH-5 (environmental isolate, S. epidermidis). As to conditions: Staphylococcus epidermidis. The procedure, abridged: (§1)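 The strains are multidrug-resistant environmental isolates, and MICs were measured by CLSI broth microdilution in Mueller-Hinton broth using two-fold dilutions from 100 to 0.78 μg/mL, incubated 20 h at 37 °C. CellTiter-Blue was then added for 4 h at 37 °C, and the MIC was taken as the lowest concentration preventing the blue-to-pink colour change.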

Experiment [2] relates to UDH-6 (environmental isolate, S. haemolyticus). The procedure, abridged:
as §1

The test system of experiment [3] is UDH-2 (environmental isolate, S. saprophyticus). As to conditions: Staphylococcus saprophyticus. The procedure, abridged: as §1
The test system of experiment [4] is UDH-7 (environmental isolate, S. haemolyticus). The procedure, abridged:
as §1

Experiment [5] relates to UDH-3 (environmental isolate, S. saprophyticus). The procedure, abridged:
as §1

In experiment [6] the test system is UDH-1 (environmental isolate, S. saprophyticus). The procedure, abridged:
as §1

In experiment [7] the test system is UDH-4 (environmental isolate, S. saprophyticus). As to conditions: Staphylococcus saprophyticus. The procedure, abridged:
as §1

Experiment [8] has as its system S. aureus (ATCC 25923). Conditions: Staphylococcus aureus, ATCC25923. The procedure, abridged:
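CLSI broth microdilution in Mueller-Hinton broth, two-fold dilutions over 100–0.78 μg/mL, 20 hours at 37° C. CellTiter-Blue then added for 4 hours at 37° C.; MIC was the lowest concentration preventing the blue-to-pink colour change.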

[9] abbreviates: Staphylococcus haemolyticus, environmental isolate.
[10] abbreviates: Staphylococcus saprophyticus, environmental isolate.

Experimental findings from patent US10526343B2, “Heterocyclic systems and pharmaceutical applications thereof” (University of Sharjah, priority 2018, dated 2020) are described below.

As a reminder, the MIC is the lowest concentration found to suppress growth.

Consider `COC(=O)CC1COc2c(cc3c4c2CCCN4CCC3)-c2c(NC(C)(C)C)n3c(-c4ccc(Br)cc4)c(C)sc3[n+]21` (stereo not drawn) [Compound 1o], for which the MIC in experiment [1] turned out to be 3.12 µg/mL; in experiment [2] (setting [9]) it was 6.25 µg/mL; in experiment [3] it was 6.25 µg/mL; in experiment [4] (setting [9]) it was 6.25 µg/mL; in experiment [5] (setting [10]) it was 3.12 µg/mL; in experiment [6] (setting [10]), 6.25 µg/mL. In addition, the MIC amounted to 6.25 µg/mL in experiment [7] and 3.12 µg/mL in experiment [8]. Further, the “times lower than MIC of ciprofloxacin” value in experiment [2] (UDH-6) was “approximately 10 times”; in experiment [4] (UDH-7), “approximately 10 times”; in experiment [5] (UDH-3) it was “approximately 20 times”; in experiment [6] (UDH-1), “approximately 10 times”.
